Key:
[1] = Toxicity (Table 1 summary of characteristics)
DNMT3b3 = molecular target: T1, DNMT3b3 (Homo sapiens, UniProt Q9UBC3); experiment: Western blot of DNMT3b3 level in treated T24 cells; type: cell-based; settings: 500 μM for 48 h
T1 construct: protein extracts were isolated from both treated and untreated T24; endogenous in cells; host or cells: T24 human bladder carcinoma cells (ATCC)
Method: (§1) The mRNA for DNMT3b3 is the only 3b transcript expressed in T24 cells, and DNMT3a levels could not be assessed because no suitable antibodies against DNMT3a are available. Thus, with reference to FIG. 12, protein extracts were isolated from both treated and untreated T24 (population 3 million cells, treated with 500 μM Zebularine for 48 h), and […] with specific antibodies for DNMT1 and DNMT3b3 as shown in FIG. 12. β-actin was included as a loading control, and the molecular weights of each protein are indicated.

N. crassa = type: cell-based; settings: Neurospora crassa, 400 nmoles
Method: Strains with mutations in dim-2 lack all detectable methyltransferase activity. A dim-2 strain (N613) and a wild-type control (N242) were challenged with a high concentration of Zebularine. The concentration of Zebularine is indicated above the plates and was applied to the paper disc as in FIG. 5; no hygromycin was applied to these plates.
(§2) Plate tests were performed with solidified medium essentially as previously described (Selker, Proc. Natl. Acad. Sci. USA 95;9430-9435, 1998). In brief, approximately 2,000 N. crassa conidia of the indicated were plated on each plate. Drugs were administered from a 4-mm diameter Whatman™ no. 1 paper disk placed in the middle of each plate shortly after plating.
Strains with mutations in dim-2 lack all detectable methyltransferase activity (Kouzminova and Selker, “Dim-2 encodes a DNA-methyltransferase responsible for all known cytosine methylation in Neurospora,” EMBO J. Aug. 1, 2001). In order to examine whether Zebularine toxicity is mediated by its methyltransferase-inhibitory activity, dim-2 strain (N613) and a wild-type control (N242) were challenged with a high concentration (400 nmoles) of Zebularine. No hygromycin was applied to these plates.

T24 cells [2] = experiment: Zebularine metabolites in T24 cells (SAX-10 HPLC); type: in vitro ADME, human; settings: 6 hr incubation
Method: ZB, ZB-MP, ZB-DP and ZB-TP correspond, respectively, to Zebularine, 5′-mono, 5′-di- and 5′-triphosphate metabolites. There are two unidentified metabolites, indicated by the symbols ?1 and ?2.
Zebularine metabolites were identified after incubation of human bladder cancer cells (T24) in DMEM+10% FCS medium with antibiotics. Zebularine (10 μM, 1 μCi), specific activity 200 DPM/pmole was used in these experiments. At the end of the incubation, cells were extracted with 60% methanol and aliquots were analyzed by SAX-10 HPLC using a methanolwater gradient as follows: 1-5 min 1% MeOH, 5-25 min gradient to 25% MeOH, 25-35 min isocratic with 25% MeOH and back to 1% MeOH after 10 min. The phosphorylated metabolites were identified by comparison with authentic synthetic standards. Using this methodology formation of metabolites as a function of concentration after a 6 hr incubation period was investigated (FIG. 17). The major metabolite formed was the 5′-triphosphate.

[3] = tested on: p16 promoter and p16 exon 2; experiment: Continuous long-term treatment of T24 cells, methylation of p16 promoter and p16 exon 2; type: cell-based, human; settings: 100 μM continuous treatment, Day 14, T24 cells; dropped from ˜96%
silenced hph gene = experiment: Plate assay, reactivation of the methylation-silenced hph gene (hygromycin resistance), strain N644; type: cell-based, Neurospora crassa; settings: 2.5-400 nmoles on paper disc
Method: FIG. 5 is a series of photographs of plate assays, showing reactivation of the silenced hph gene in Neurospora crassa by Zebularine. N. crassa strain N644 has a single copy of the E. coli hph gene that was silenced by cytosine methylation. The active hph gene confers hygromycin resistance.
Treatments are indicated above each plate; the listed compound was applied to the paper discs in the middle of each plate. With the exception of the “no hygromycin” plate, all plates had 5 mg hygromycin B added in a 5 ml 0.7% agar overlay after 24 hours growth at 32° C. The plates were then incubated an additional two days at the same temperature and photographed.
as §2
N. crassa was used to quantitatively examine the effectiveness of Zebularine at reducing or reversing methylation (Selker, Proc. Natl. Acad. Sci. USA, 95:9430-9435, 1998). […]

DNMT1 = molecular target: T2, DNMT1 (Homo sapiens, UniProt P26358); experiment: Western blot of DNMT1 level in treated T24 cells; type: cell-based; settings: 500 μM for 48 h
T2 construct: protein extracts were isolated from both treated and untreated T24; endogenous in cells; host or cells: T24 human bladder carcinoma cells (ATCC)
Method: as §1

T24 cells [4] = experiment: Incorporation of Zebularine into DNA and RNA in T24 cells; type: in vitro ADME, human; settings: 10 μM, 1 μCi, 24 hr
Method: FIG. 19 is a bar graph depicting the relative incorporation of Zebularine into DNA and RNA in T24 cells, showing that approximately 7 times the amount of Zebularine is incorporated into RNA as DNA.
Following a similar incubation protocol in T24 cells (Zebularine (10 μM, 1 μCi) for 24 hr, cellular DNA and RNA were isolated by the tri-reagent method according to the manufacture's instructions. Levels of Zebularine and 2′-Deoxyzebularine were determined by measuring total radioactivity in purified RNA and DNA, respectively. The identity of Zebularine and 2′-Deoxyzebularine was accomplished by a reverse phase HPLC analysis of digested RNA and DNA and comparison against authentic standards. In FIG. 19 a bar graph depicts the relative incorporation of Zebularine into DNA and RNA in T24 cells, showing that approximately 7 times the amount of Zebularine is incorporated into RNA as DNA.

T2 sequence (P26358 whole entry): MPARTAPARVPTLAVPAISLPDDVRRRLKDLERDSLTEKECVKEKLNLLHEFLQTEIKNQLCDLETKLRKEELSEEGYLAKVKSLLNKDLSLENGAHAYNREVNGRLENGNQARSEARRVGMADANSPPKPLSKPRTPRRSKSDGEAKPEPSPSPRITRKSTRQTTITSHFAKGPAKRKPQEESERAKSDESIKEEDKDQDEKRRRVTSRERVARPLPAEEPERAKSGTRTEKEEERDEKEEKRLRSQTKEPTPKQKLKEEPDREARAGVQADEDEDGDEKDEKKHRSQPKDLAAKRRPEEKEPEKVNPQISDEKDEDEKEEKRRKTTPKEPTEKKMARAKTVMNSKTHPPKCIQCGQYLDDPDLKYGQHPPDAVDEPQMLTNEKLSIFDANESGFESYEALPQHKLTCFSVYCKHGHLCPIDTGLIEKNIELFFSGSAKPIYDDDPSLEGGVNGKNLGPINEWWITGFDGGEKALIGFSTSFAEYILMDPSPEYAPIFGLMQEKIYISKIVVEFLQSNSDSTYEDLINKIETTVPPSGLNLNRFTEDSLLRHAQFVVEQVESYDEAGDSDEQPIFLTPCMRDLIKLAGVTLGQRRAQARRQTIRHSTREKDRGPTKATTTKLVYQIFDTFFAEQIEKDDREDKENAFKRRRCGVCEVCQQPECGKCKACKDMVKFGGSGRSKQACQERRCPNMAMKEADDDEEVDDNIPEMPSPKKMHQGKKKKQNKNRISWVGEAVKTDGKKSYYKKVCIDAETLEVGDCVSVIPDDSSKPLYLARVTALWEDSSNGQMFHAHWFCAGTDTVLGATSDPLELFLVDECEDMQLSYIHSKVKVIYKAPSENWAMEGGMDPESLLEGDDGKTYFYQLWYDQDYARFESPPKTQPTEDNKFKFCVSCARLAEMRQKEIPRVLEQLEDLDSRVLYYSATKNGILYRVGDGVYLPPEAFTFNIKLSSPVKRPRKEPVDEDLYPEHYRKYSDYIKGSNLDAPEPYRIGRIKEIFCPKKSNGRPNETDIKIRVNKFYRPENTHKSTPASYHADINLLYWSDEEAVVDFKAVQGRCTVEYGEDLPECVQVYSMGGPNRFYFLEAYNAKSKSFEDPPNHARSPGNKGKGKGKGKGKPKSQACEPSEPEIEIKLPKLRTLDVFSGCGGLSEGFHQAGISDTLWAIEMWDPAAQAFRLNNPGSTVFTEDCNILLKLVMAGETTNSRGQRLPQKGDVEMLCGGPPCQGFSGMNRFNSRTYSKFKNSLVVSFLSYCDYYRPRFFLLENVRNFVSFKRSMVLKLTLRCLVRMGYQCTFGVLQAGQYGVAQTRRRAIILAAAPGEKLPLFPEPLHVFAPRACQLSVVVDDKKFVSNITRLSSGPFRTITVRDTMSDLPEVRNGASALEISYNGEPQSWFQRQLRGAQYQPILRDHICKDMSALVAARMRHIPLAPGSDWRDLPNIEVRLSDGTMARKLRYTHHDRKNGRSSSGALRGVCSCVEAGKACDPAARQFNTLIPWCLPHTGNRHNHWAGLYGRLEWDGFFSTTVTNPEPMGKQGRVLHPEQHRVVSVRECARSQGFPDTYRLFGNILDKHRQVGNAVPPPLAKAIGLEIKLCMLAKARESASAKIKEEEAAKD

Structure (SMILES) | Toxicity [1] | level of DNMT3b3 (DNMT3b3) | region of conidia toxicity around the filter disk, dim-2 vs wild type (N. crassa) | major metabolite formed (T24 cells [2]) | methylation level at maximum demethylation [3] [%] | reactivation of silenced hph gene (conidia growth on hygromycin) (silenced hph gene) | level of DNMT1 (DNMT1) | amount incorporated into RNA relative to DNA (T24 cells [4])
Nc1ncn([C@@H]2O[C@H](CO)[C@@H](O)[C@H]2O)c(=O)n1 [5-Aza-CR, 5-azacytidine, reference compound] | High | – | – | – | – | – | – | –
O=c1ncccn1[C@@H]1O[C@H](CO)[C@@H](O)[C@H]1O [Zebularine, 1-β-ribofuranosyl-1,2-dihydropyrimidin-2-one] | – | significant reduction | roughly equivalent in both dim-2 and wildtype strains | 5′-triphosphate | ~47 | reactivate the hph gene | significant reduction | approximately 7 times

— patent US8207142B2, “Inhibitor of DNA methylation” (priority 2001, dated 2012)
